Results published in patent publication US12319697B2, “Process for preparing imidazole derivatives” (Bayer Aktiengesellschaft, priority 2018, dated 2025).

Experiments:
[1] = log P[a] by reversed-phase HPLC (C18), LC-UV in the acidic range, EEC Directive 79/831 Annex V.A8; format: physicochemical; details: 0.9 ml/l formic acid in water and 1.0 ml/l formic acid in acetonitrile, gradient 10% to 95% acetonitrile; for chromatographic logP: reversed-phase HPLC column (C18)
Procedure: (§1) The log P values were determined according to EEC Directive 79/831 Annex V.A8 by HPLC (high-performance liquid chromatography) on a reversed-phase column (C18) using the following methods: The log P[a] value is determined by LC-UV measurement in the acidic range using 0.9 ml/1 formic acid in water and 1.0 ml/1 formic acid in acetonitrile as mobile phases (linear gradient from 10% acetonitrile to 95% acetonitrile). Calibration was carried out using a homologous series of straight-chain alkan-2-ones (having 3 to 16 carbon atoms) with known log P values. The values between successive alkanones are determined by linear regression.

[2] = log P[n] by reversed-phase HPLC (C18), LC-UV in the neutral range, EEC Directive 79/831 Annex V.A8; format: physicochemical; details: 79 mg/l ammonium carbonate in water and acetonitrile, gradient 10% to 95% acetonitrile; for chromatographic logP: reversed-phase HPLC column (C18)
Procedure: as §1, with “acetonitrile). The log P[n] value is determined by LC-UV measurement in the neutral range using 79 mg/l ammonium carbonate in water and acetonitrile as mobile phases (linear gradient from 10% acetonitrile to 95% acetonitrile).” for “acetonitrile).”

Compound | chromatographic logP [1] | chromatographic logP [2] | log P[a] ([1]; listed as Comparative Example) | log P[n] ([2]; listed as Comparative Example)
CCSc1c(-c2nc3cc(SC(F)(F)F)nnc3n2C)nc(-c2ccc(Cl)cc2)n1C | 4.51 | 4.34 |  | 
CCSc1c(-c2nc3cc(C(F)(F)F)nnc3n2C)nc(-c2ccc(Cl)cc2)n1C [Example 2, 6-[2-(4-chlorophenyl)-5-(ethylsulfanyl)-1-methyl-1H-imidazol-4-yl]-7-methyl-3-(trifluoromethyl)-7H-imidazo[4,5-c]pyridazine] | 4.23 | 4.08 | 4.35 | 4.07
CCSc1c(-c2nc3cc(C(F)(F)C(F)(F)F)ncc3n2C)ncn1C [Example 6, 2-[5-(ethylsulfanyl)-1-methyl-1H-imidazol-4-yl]-3-methyl-6-(pentafluoroethyl)-3H-imidazo[4,5-c]pyridine] | 2.7 | 2.71 |  | 
CCSc1c(-c2nc3cc(Br)cnc3n2C)nc(C2CC2)n1C [Example 7, 6-bromo-2-[2-cyclopropyl-5-(ethylsulfanyl)-1-methyl-1H-imidazol-4-yl]-3-methyl-3H-imidazo[4,5-b]pyridine] | 2.92 | 3.23 |  | 
CCSc1c(I)ncn1C [Example 8 Step 1, 5-(ethylsulfanyl)-4-iodo-1-methyl-1H-imidazole] | 1.61 | 1.91 |  | 
CCSc1c(I)nc(Br)n1C [Example 8 Step 2, 2-bromo-5-(ethylsulfanyl)-4-iodo-1-methyl-1H-imidazole] | 2.77 | 2.68 |  | 
Cn1cnc2cc(C(F)(F)F)ncc21 [Example 8 Step 3, 3-methyl-6-(trifluoromethyl)-3H-imidazo[4,5-c]pyridine] | 1.04 | 1.1 |  | 

Further lines, results first:

chromatographic logP [1] | chromatographic logP [2] | log P[a] ([1]; listed as Comparative Example) | log P[n] ([2]; listed as Comparative Example) | Compound
4.82 | 4.6 |  |  | CCSc1c(-c2nc3cc(C(F)(F)C(F)(F)F)nnc3n2C)nc(-c2ccc(Cl)cc2)n1C
3.5 | 3.4 |  |  | CCSc1c(-c2nc3cc(SC(F)(F)F)nnc3n2C)nc(C2CC2)n1C
3.85 | 3.75 |  |  | CCSc1c(-c2nc3cc(C(F)(F)C(F)(F)F)nnc3n2C)nc(C2CC2)n1C
5.14 | 4.92 |  |  | CCSc1c(-c2nc3cc(C(F)(F)C(F)(F)F)nnc3n2C)nc(-c2ccc(Cl)s2)n1C
5.25 | 4.66 |  |  | CCSc1c(-c2nc3cc(C(F)(F)C(F)(F)F)nnc3n2C)nc(-c2ccc(Cl)cn2)n1C
2.26 | 2.37 |  |  | CCSc1c(-c2nc3cc(C(F)(F)F)nnc3n2C)ncn1C [Example 1, 6-[5-(ethylsulfanyl)-1-methyl-1H-imidazol-4-yl]-7-methyl-3-(trifluoromethyl)-7H-imidazo[4,5-c]pyridazine]
2.88 | 2.86 |  |  | CCSc1c(-c2nc3cc(C(F)(F)C(F)(F)F)nnc3n2C)ncn1C [Example 3, 6-[5-(ethylsulfanyl)-1-methyl-1H-imidazol-4-yl]-7-methyl-3-(pentafluoroethyl)-7H-imidazo[4,5-c]pyridazine]
2.2 | 2.21 |  |  | CCS(=O)(=O)c1c(-c2nc3cc(C(F)(F)C(F)(F)F)nnc3n2C)ncn1C [Example 4, 6-[5-(ethylsulfonyl)-1-methyl-1H-imidazol-4-yl]-7-methyl-3-(pentafluoroethyl)-7H-imidazo[4,5-c]pyridazine]
3.76 |  |  |  | CCSc1c(-c2nc3cc(C(F)(F)C(F)(F)F)nnc3n2C)nc(Br)n1C [Example 5, 6-[2-bromo-5-(ethylsulfanyl)-1-methyl-1H-imidazol-4-yl]-7-methyl-3-(pentafluoroethyl)-7H-imidazo[4,5-c]pyridazine]
3.04 | 2.85 |  |  | CCSc1c(-c2nc3cc(C(F)(F)F)ncc3n2C)nc(Br)n1C [Example 8, 2-[2-bromo-5-(ethylsulfanyl)-1-methyl-1H-imidazol-4-yl]-3-methyl-6-(trifluoromethyl)-3H-imidazo[4,5-c]pyridine]
